Biological target: T1, human Npt2a (Homo sapiens, UniProt Q06495)
T1 construct: expressed in transfected cells
T1 sequence (Q06495 1-639): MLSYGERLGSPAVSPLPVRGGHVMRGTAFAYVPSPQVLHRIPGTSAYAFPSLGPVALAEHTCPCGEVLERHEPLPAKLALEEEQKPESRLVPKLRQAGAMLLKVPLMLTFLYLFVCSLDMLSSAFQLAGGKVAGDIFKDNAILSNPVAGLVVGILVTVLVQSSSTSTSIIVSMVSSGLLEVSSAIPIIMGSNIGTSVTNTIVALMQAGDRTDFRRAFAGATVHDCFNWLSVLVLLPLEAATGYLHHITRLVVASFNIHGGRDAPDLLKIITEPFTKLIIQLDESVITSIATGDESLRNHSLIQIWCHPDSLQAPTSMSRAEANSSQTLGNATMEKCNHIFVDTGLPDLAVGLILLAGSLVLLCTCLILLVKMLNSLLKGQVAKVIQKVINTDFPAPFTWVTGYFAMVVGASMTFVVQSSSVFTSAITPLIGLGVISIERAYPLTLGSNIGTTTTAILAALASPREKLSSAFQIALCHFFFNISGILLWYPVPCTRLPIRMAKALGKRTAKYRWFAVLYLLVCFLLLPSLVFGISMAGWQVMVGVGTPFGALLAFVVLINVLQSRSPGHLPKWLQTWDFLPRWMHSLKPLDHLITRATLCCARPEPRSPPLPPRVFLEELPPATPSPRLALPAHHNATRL
Assay: Npt2a activity cell based assay, membrane potential dye, CHO T-REx hNpt2a cells
Details: doxycycline-induced, depolarization by sodium phosphate influx, average or median values if tested more than once
Outline: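 Doxycycline-induced (0.5 μg/mL, 24 h) CHO T-REx cells were loaded with membrane potential dye in sodium-free NHE buffer (pH 7.4) and exposed to compound (50 μM–1 nM, 5 min, room temperature).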

Row | SMILES | IC50 [µM]
1 | CCc1c(-c2ccc(F)cc2)nn(CC2CC2)c1Nc1cc(-n2nc(C)c(C(=O)OC(C)(C)C)c2C(F)F)ncn1 [Example 193, tert-butyl 1-(6-{[1-(cyclopropylmethyl)-4-ethyl-3-(4-fluorophenyl)-1H-pyrazol-5-yl]amino}pyrimidin-4-yl)-5-(difluoromethyl)-3-methyl-1H-pyrazole-4-carboxylate] | 0.051
2 | CCc1c(Nc2cc(-n3nc(C)c(C(=O)N4CCCC4C)c3C)ncn2)nn(C)c1-c1ccc(F)cc1 (racemic) [Example 76, (±)-[1-(6-{[4-ethyl-5-(4-fluorophenyl)-1-methyl-1H-pyrazol-3-yl]amino}pyrimidin-4-yl)-3,5-dimethyl-1H-pyrazol-4-yl](2-methylpyrrolidin-1-yl)methanone] | 0.19
3 | Cc1nn(-c2cc(Nc3nn(C)c(-c4ccc(F)cc4)c3Cl)ncn2)c(C(C)(C)O)c1Cl [Example 304, 2-[4-chloro-1-(6-{[4-chloro-5-(4-fluorophenyl)-1-methyl-1H-pyrazol-3-yl]amino}pyrimidin-4-yl)-3-methyl-1H-pyrazol-5-yl]propan-2-ol] | 0.006
4 | Cc1nn(-c2cc(Nc3c(C)c(-c4ccncc4)nn3CC3CC3)ncn2)c(C)c1C(F)(F)F [Example 384, N-[1-(cyclopropylmethyl)-4-methyl-3-(pyridin-4-yl)-1H-pyrazol-5-yl]-6-[3,5-dimethyl-4-(trifluoromethyl)-1H-pyrazol-1-yl]pyrimidin-4-amine] | 0.03
5 | CCc1c(-c2ccc(F)cc2)nn(C)c1Nc1cc(-n2nc(C)c(-c3nnc(C)o3)c2C)ncn1 [Example 226, 6-[3,5-dimethyl-4-(5-methyl-1,3,4-oxadiazol-2-yl)-1H-pyrazol-1-yl]-N-[4-ethyl-3-(4-fluorophenyl)-1-methyl-1H-pyrazol-5-yl]pyrimidin-4-amine] | 0.19
6 | Cc1cc(C)n(-c2cc(Nc3[nH]nc(-c4ccc(F)cc4)c3Cl)ncn2)n1 [Example 14, N-[4-chloro-3-(4-fluorophenyl)-1H-pyrazol-5-yl]-6-(3,5-dimethyl-1H-pyrazol-1-yl)pyrimidin-4-amine] | 0.07
7 | Cc1nn(-c2cc(Nc3c(C)c(-c4ccc(C#N)cc4)nn3C)ncn2)c2c1C(C)(O)CC2 (racemic) [Example 227, 4-[5-({6-[(±)-4-hydroxy-3,4-dimethyl-5,6-dihydrocyclopenta[c]pyrazol-1(4H)-yl]pyrimidin-4-yl}amino)-1,4-dimethyl-1H-pyrazol-3-yl]benzonitrile] | 0.016
8 | Cc1c(Nc2cc(-n3cc(C(F)(F)F)cn3)ncn2)nn(C)c1-c1ccc(F)cc1 [Example 424, N-[5-(4-fluorophenyl)-1,4-dimethyl-1H-pyrazol-3-yl]-6-[4-(trifluoromethyl)-1H-pyrazol-1-yl]pyrimidin-4-amine] | 0.37
9 | Cc1cc(C(C)(C)O)n(-c2cc(Nc3c(C)c(-c4ccc(C#N)cc4)nn3CC3CC3)ncn2)n1 [Example 263, 4-[1-(cyclopropylmethyl)-5-({6-[5-(2-hydroxypropan-2-yl)-3-methyl-1H-pyrazol-1-yl]pyrimidin-4-yl}amino)-4-methyl-1H-pyrazol-3-yl]benzonitrile] | 0.111
10 | Cc1nn(-c2cc(Nc3nn(C)c(-c4ccc(F)cc4)c3OC(F)F)ncn2)c(C)c1C(F)(F)F [Example 469, N-[4-(difluoromethoxy)-5-(4-fluorophenyl)-1-methyl-1H-pyrazol-3-yl]-6-[3,5-dimethyl-4-(trifluoromethyl)-1H-pyrazol-1-yl]pyrimidin-4-amine] | 0.005
11 | CCOC(=O)c1c(C)nn(-c2cc(Nc3c(Cl)c(-c4ccc(F)cc4)nn3CC3CC3)ncn2)c1C [Example 158, ethyl 1-(6-{[4-chloro-1-(cyclopropylmethyl)-3-(4-fluorophenyl)-1H-pyrazol-5-yl]amino}pyrimidin-4-yl)-3,5-dimethyl-1H-pyrazole-4-carboxylate] | 0.004
12 | COCCn1nc(-c2ccc(F)cc2)c(C)c1Nc1cc(-n2nc(C)c(OC)c2C)ncn1 [Example 526, N-[3-(4-fluorophenyl)-1-(2-methoxyethyl)-4-methyl-1H-pyrazol-5-yl]-6-(4-methoxy-3,5-dimethyl-1H-pyrazol-1-yl)pyrimidin-4-amine] | 0.017
13 | Cc1cc(C)n(-c2cc(Nc3nn(CC4CC4)c(-c4ccc(F)cc4)c3C)ncn2)n1 [Example 169, N-[1-(cyclopropylmethyl)-5-(4-fluorophenyl)-4-methyl-1H-pyrazol-3-yl]-6-(3,5-dimethyl-1H-pyrazol-1-yl)pyrimidin-4-amine] | 0.69
14 | Cc1nn(-c2cc(Nc3nn(C)c(-c4ccc(F)cn4)c3C)ncn2)c(C)c1Cl [Example 479, 6-(4-chloro-3,5-dimethyl-1H-pyrazol-1-yl)-N-[5-(5-fluoropyridin-2-yl)-1,4-dimethyl-1H-pyrazol-3-yl]pyrimidin-4-amine] | 0.018
15 | CCc1c(Nc2cc(-n3nc(C)c(Cl)c3C)ncn2)nn(CC2CC2)c1-c1ccc(F)cc1 [Example 144, 6-(4-chloro-3,5-dimethyl-1H-pyrazol-1-yl)-N-[1-(cyclopropylmethyl)-4-ethyl-5-(4-fluorophenyl)-1H-pyrazol-3-yl]pyrimidin-4-amine] | 0.52
16 | CCOC(=O)c1c(C)nn(-c2cc(Nc3nn(C)c(-c4ccccc4)c3Cl)ncn2)c1C [Example 81, ethyl 1-{6-[(4-chloro-1-methyl-5-phenyl-1H-pyrazol-3-yl)amino]pyrimidin-4-yl}-3,5-dimethyl-1H-pyrazole-4-carboxylate] | 0.011
17 | Cc1cc(C)n(-c2cc(Nc3c(C)c(-c4ccc(F)cc4)nn3CC(C)(O)C3CC3)ncn2)n1 (racemic) [Example 325, (±)-2-cyclopropyl-1-[5-{[6-(3,5-dimethyl-1H-pyrazol-1-yl)pyrimidin-4-yl]amino}-3-(4-fluorophenyl)-4-methyl-1H-pyrazol-1-yl]propan-2-ol (Racemate)] | 1.1
18 | COc1ccc(-c2nn(C)c(Nc3cc(-n4nc(C)c(C(F)(F)F)c4C)ncn3)c2C)cn1 [Example 494, 6-[3,5-dimethyl-4-(trifluoromethyl)-1H-pyrazol-1-yl]-N-[3-(6-methoxypyridin-3-yl)-1,4-dimethyl-1H-pyrazol-5-yl]pyrimidin-4-amine] | 0.19
19 | Cc1c(-c2ccc(F)cc2)nn(CC2CC2)c1Nc1cc(-n2nc3c(c2C)C(=O)CC3)ncn1 [Example 395, 2-(6-{[1-(cyclopropylmethyl)-3-(4-fluorophenyl)-4-methyl-1H-pyrazol-5-yl]amino}pyrimidin-4-yl)-3-methyl-5,6-dihydrocyclopenta[c]pyrazol-4(2H)-one] | 0.019
20 | CNc1ccc(-c2nn(CC3CC3)c(Nc3cc(-n4nc(C)c(Cl)c4C)ncn3)c2C)cc1 [Example 417, 6-(4-chloro-3,5-dimethyl-1H-pyrazol-1-yl)-N-{1-(cyclopropylmethyl)-4-methyl-3-[4-(methylamino)phenyl]-1H-pyrazol-5-yl}pyrimidin-4-amine] | 0.027
21 | CCOC(=O)c1c(C)nn(-c2cc(Nc3c(C)c(-c4ccc(F)cc4)nn3CC3CC3)ncn2)c1C [Example 152, ethyl 1-(6-{[1-(cyclopropylmethyl)-3-(4-fluorophenyl)-4-methyl-1H-pyrazol-5-yl]amino}pyrimidin-4-yl)-3,5-dimethyl-1H-pyrazole-4-carboxylate] | 0.006
22 | CCc1c(Nc2cc(-n3nc(C)cc3C)ncn2)n[nH]c1-c1ccc(F)cc1F [Example 9, N-[5-(2,4-difluorophenyl)-4-ethyl-1H-pyrazol-3-yl]-6-(3,5-dimethyl-1H-pyrazol-1-yl)pyrimidin-4-amine] | 0.04
23 | COc1c(C)nn(-c2cc(Nc3c(C)c(-c4ccc(F)cn4)nn3C)ncn2)c1C [Example 468, N-[3-(5-fluoropyridin-2-yl)-1,4-dimethyl-1H-pyrazol-5-yl]-6-(4-methoxy-3,5-dimethyl-1H-pyrazol-1-yl)pyrimidin-4-amine] | 0.3
24 | Cc1cc(C)n(-c2cc(Nc3c(C)c(-c4ccc(OC(F)(F)F)cc4)nn3CC3CC3)ncn2)n1 [Example 308, N-{1-(cyclopropylmethyl)-4-methyl-3-[4-(trifluoromethoxy)phenyl]-1H-pyrazol-5-yl}-6-(3,5-dimethyl-1H-pyrazol-1-yl)pyrimidin-4-amine] | 0.023
25 | Cc1nn(-c2cc(Nc3c(C)c(-c4ccc(C#N)cc4)nn3C)ncn2)c(C)c1Cl [Example 201, 4-(5-{[6-(4-chloro-3,5-dimethyl-1H-pyrazol-1-yl)pyrimidin-4-yl]amino}-1,4-dimethyl-1H-pyrazol-3-yl)benzonitrile] | 0.006
26 | Cc1nn(-c2cc(Nc3c(C)c(-c4ccc(C#N)cc4)nn3CC3CC3)ncn2)c2c1C(=O)CC2 [Example 365, 4-[1-(cyclopropylmethyl)-4-methyl-5-{[6-(3-methyl-4-oxo-5,6-dihydrocyclopenta[c]pyrazol-1(4H)-yl)pyrimidin-4-yl]amino}-1H-pyrazol-3-yl]benzonitrile] | 0.061
27 | Cc1cc(C(C)(C)O)n(-c2cc(Nc3nn(C)c(-c4ccc(F)cc4)c3C)ncn2)n1 [Example 262, 2-[1-(6-{[5-(4-fluorophenyl)-1,4-dimethyl-1H-pyrazol-3-yl]amino}pyrimidin-4-yl)-3-methyl-1H-pyrazol-5-yl]propan-2-ol] | 0.033
